From patent US20130150377A1, “Tetrahydropyridinyl and Dihydropyrrolyl Compounds and the Use Thereof” (SHIONOGI & CO., LTD., priority 2008, published 2013) come the findings set out here.

One may read the IC50 as the concentration that gives 50% inhibition.

Structures are written as SMILES.

T1 sequence (Q00975 whole entry): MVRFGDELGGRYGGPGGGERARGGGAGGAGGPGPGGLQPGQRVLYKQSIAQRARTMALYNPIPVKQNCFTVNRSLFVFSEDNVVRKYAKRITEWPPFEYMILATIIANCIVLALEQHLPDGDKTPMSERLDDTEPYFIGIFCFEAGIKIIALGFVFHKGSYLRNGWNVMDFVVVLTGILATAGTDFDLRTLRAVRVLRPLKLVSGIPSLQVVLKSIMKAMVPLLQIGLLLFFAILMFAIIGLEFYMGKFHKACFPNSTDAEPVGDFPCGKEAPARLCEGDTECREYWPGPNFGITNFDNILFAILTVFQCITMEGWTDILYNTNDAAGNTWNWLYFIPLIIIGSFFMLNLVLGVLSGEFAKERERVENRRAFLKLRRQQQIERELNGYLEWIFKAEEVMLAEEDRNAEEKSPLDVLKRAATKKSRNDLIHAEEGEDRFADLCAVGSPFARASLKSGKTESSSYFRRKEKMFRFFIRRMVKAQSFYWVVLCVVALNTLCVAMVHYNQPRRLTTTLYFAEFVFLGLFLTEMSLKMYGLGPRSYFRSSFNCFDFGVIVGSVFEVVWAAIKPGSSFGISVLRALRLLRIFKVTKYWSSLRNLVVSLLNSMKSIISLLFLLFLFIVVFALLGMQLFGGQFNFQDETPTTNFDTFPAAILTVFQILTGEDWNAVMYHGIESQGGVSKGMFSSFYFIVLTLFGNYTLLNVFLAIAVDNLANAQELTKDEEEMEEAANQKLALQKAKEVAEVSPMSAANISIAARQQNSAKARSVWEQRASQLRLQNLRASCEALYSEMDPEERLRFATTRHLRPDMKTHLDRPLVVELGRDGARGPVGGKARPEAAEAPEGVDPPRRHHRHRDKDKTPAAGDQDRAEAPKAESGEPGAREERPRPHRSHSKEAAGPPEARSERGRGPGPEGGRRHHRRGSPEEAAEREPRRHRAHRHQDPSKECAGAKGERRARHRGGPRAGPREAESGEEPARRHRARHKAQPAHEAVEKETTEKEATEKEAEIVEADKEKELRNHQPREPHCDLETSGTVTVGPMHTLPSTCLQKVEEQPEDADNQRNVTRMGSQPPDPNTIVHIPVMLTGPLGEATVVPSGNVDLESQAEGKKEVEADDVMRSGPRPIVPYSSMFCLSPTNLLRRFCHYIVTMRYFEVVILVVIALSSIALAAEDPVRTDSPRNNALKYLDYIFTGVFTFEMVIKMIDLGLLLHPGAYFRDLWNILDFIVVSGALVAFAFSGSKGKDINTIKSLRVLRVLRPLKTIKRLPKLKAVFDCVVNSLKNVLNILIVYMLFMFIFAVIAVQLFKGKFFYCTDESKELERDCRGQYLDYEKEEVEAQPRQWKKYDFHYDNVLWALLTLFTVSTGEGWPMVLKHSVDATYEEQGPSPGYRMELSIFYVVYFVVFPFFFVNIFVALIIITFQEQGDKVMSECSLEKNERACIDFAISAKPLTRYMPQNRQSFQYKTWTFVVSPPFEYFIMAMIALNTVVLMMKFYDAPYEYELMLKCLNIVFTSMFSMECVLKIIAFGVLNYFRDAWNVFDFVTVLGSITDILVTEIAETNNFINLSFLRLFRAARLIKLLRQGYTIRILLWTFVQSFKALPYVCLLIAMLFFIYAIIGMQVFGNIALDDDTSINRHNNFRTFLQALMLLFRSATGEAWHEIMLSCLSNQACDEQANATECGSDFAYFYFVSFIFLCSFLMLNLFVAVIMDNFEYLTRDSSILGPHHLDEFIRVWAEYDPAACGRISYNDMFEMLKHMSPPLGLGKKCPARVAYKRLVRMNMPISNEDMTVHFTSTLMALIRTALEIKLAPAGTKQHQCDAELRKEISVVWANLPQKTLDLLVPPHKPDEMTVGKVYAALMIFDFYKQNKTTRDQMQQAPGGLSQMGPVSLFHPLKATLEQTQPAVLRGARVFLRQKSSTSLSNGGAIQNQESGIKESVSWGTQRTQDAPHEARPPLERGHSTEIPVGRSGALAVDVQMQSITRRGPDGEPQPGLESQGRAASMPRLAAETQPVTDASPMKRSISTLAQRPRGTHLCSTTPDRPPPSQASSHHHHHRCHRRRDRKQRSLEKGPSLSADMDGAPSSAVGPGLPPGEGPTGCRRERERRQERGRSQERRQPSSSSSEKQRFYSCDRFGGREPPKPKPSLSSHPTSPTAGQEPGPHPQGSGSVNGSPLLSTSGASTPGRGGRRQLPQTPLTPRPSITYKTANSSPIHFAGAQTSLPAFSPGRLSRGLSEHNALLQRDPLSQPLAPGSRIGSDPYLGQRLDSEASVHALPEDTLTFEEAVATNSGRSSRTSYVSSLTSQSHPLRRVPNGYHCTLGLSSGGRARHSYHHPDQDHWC
T1 sequence (P54289 25-956 partner limits assumed): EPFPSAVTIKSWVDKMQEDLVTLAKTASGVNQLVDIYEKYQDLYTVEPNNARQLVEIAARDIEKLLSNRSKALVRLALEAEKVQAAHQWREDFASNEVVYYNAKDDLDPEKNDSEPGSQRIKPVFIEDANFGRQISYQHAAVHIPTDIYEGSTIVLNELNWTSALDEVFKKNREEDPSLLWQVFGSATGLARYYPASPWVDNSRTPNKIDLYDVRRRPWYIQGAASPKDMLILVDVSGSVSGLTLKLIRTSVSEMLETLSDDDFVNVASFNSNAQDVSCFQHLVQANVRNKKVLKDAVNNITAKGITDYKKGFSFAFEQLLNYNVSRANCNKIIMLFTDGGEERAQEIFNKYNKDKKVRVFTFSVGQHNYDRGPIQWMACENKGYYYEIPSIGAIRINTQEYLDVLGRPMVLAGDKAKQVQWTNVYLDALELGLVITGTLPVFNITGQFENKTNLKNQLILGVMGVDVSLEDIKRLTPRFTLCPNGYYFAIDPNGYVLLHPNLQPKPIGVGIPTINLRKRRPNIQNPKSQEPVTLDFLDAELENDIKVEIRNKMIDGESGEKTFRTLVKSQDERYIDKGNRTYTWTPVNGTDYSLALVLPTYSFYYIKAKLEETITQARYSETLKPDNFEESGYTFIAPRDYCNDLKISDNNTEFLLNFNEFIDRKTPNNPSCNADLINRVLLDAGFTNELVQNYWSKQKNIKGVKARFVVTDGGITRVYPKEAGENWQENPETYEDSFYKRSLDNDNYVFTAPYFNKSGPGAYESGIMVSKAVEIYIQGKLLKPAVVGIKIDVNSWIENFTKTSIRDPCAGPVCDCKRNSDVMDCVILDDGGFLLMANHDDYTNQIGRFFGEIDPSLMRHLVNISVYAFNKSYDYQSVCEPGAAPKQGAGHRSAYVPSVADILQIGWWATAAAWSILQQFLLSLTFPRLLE
T1 sequence (P54289 957-1103 partner limits assumed): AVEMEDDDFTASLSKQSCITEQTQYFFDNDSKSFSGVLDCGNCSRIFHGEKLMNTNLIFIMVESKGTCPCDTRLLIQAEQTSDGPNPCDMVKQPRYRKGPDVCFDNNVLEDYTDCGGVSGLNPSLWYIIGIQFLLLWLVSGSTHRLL
T1 sequence (P54284 whole entry partner): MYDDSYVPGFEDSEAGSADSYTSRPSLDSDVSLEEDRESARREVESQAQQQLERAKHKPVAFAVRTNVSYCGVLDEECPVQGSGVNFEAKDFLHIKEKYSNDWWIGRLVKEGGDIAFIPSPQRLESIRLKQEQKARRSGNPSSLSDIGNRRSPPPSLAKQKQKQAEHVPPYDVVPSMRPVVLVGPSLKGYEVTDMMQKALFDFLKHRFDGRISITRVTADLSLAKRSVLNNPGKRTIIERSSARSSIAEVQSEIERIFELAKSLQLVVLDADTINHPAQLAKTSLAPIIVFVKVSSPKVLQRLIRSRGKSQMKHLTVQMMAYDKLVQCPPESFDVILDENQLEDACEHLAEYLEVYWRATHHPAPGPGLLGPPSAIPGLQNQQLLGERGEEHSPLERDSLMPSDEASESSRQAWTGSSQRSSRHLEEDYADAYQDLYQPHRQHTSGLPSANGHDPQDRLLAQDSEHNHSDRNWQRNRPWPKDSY

This test has as its target T1, N-type calcium channel (NTCC) (Homo sapiens, UniProt Q00975).
T1 construct: endogenous in cells; host or cells: differentiated IMR32 cells (ATCC)
The test is described as follows: FLIPR calcium mobilization assay for N-type calcium channel (differentiated IMR32 cells). The following applies: N-type calcium channel blockers, calcium mobilization in vitro assay. Type of test: cell-based. Here is the method:
Cell maintenance and differentiation. Unless noted otherwise, cell culture reagents were purchased from Mediatech of Herndon, Md. IMR32 cells (American Type Culture Collection, ATCC, Manassas, Va.) were routinely cultured in growth medium consisting of minimum essential medium containing 10% fetal bovine serum (FBS, Hyclone, Logan, Utah), 100 U/mL penicillin, 100 μg/mL streptomycin, 2 mM L-glutamine, 1 mM sodium pyruvate, and 1×MEM non-essential amino acids. 80-90% confluent flasks of cells were differentiated using the following differentiation medium: Growth medium plus 1 mM dibutyryl cyclic AMP (Sigma, St. Louis, Mo.), and 2.5 μM bromodeoxyuridine (Sigma). Cells were differentiated for 8 days by replacing differentiation medium every 2-3 days.
FLIPR Calcium Mobilization Assay for N-type Calcium Channel.
One day prior to performing this assay, differentiated IMR32 cells were treated with 1× CellStripper, and seeded on poly-D-lysine-coated 96-well clear-bottom black plates (Becton Dickinson, Franklin Lakes, N.J.) at 200,000 cells/well. On the day of the assay, the cell plates were washed with IMR32 buffer (127 mM NaCl, 1 mM KCl, 2 mM MgCl2, 700 μM NaH2PO4, 5 mM CaCl2, 5 mM NaHCO3, 8 mM HEPES, 10 mM glucose, pH 7.4), then pre-stimulated with KCl and loaded as follows: […] of IMR32 buffer, 0.05 mL of each compound tested diluted in IMR32 buffer containing 20 μM nitrendipine (Sigma), and 0.1 mL KCl dissolved in IMR32 buffer, plus Fluo-4 were added (3 μM final concentration, Molecular Probes, Eugene, Oreg.). Final test compound concentrations ranged from about 846 pM to about 17 μM, final nitrendipine concentration was 5 μM, and final KCl concentration was 90 mM. After 1 hour, the cells were washed twice with 0.05 mL of each compound tested in nitrendipine-containing IMR32 buffer (no KCl or Fluo-4), and then replaced with 0.1 mL of each compound tested in nitrendipine-containing IMR32 buffer. Plates were then transferred to a Fluorimetric Imaging Plate Reader (FLIPR^96, Molecular Devices, Inc., Sunnyvale, Calif.) for assay. The FLIPR measured basal Fluo-4 fluorescence for 315 seconds (i.e., 5 minutes and 15 seconds), then added 0.1 mL KCl agonist dissolved in IMR32 buffer and measured fluorescence for another 45 seconds. Final test compound concentrations on the cells after FLIPR read ranged from about 846 pM to about 17 μM, final nitrendipine concentration was 5 μM, and final KCl concentration was 90 mM. Data were collected over the entire time course and analyzed using Excel, Graph Pad Prism (version 3.02, Graph Pad, San Diego, Calif.), or an in-house non-linear regression analysis software.
For orientation: Calcium flux is commonly read through the fluorescence of an indicator in the cells.
As for `O=C(NC1CC1)c1cccc(C2=CCN(S(=O)(=O)c3ccc(OC(F)(F)F)cc3)CC2)n1` [1′-(4-Trifluoromethoxybenzenesulfonyl)-1′,2′,3′,6′-tetrahydro-[2,4′]bipyridinyl-6-carboxylic acid cyclopropylamide], the 50% inhibitory concentration (IC50) is 290 nM.
As for `O=C(NCC(F)(F)F)c1ncccc1C1=CCN(S(=O)(=O)c2ccc(OC(F)(F)F)cc2)CC1` [1′-(4-Trifluoromethoxybenzenesulfonyl)-1′,2′,3′,6′-tetrahydro-[3,4′]bipyridinyl-2-carboxylic acid 2,2,2-trifluoroethylamide], the IC50 came to 960 nM.
On to `O=C(NCCC(F)(F)F)c1ncccc1C1=CCN(S(=O)(=O)c2ccc(OC(F)(F)F)cc2)CC1` [1′-(4-Trifluoromethoxybenzenesulfonyl)-1′,2′,3′,6′-tetrahydro-[3,4′]bipyridinyl-2-carboxylic acid 3,3,3-trifluoropropylamide], for which the concentration for half-maximal inhibition (IC50) amounted to 940 nM.
The figure for `O=C(NCC1CC1)c1ncccc1C1=CCN(S(=O)(=O)c2ccc(OC(F)(F)F)cc2)CC1` [1′-(4-Trifluoromethoxybenzenesulfonyl)-1′,2′,3′,6′-tetrahydro-[3,4′]bipyridinyl-2-carboxylic acid cyclopropylmethylamide] is 690 nM.
As for `O=C(NC1CC1)c1cccc(C2=CCN(S(=O)(=O)c3ccc(C(F)(F)F)cc3)CC2)n1` [1′-(4-Trifluoromethylbenzenesulfonyl)-1′,2′,3′,6′-tetrahydro-[2,4′]bipyridinyl-6-carboxylic acid cyclopropylamide], the 50% inhibitory concentration (IC50) came to 110 nM.
The figure for `O=C(NC1CC1)c1cccc(C2=CCN(S(=O)(=O)c3ccccn3)CC2)n1` [1′-(Pyridin-2-ylsulfonyl)-1′,2′,3′,6′-tetrahydro-[2,4′]bipyridinyl-6-carboxylic acid cyclopropylamide] is 9920 nM; for `O=C(NC1CC1)c1cccc(C2=CCN(S(=O)(=O)c3cccnc3)CC2)n1` [1′-(Pyridin-3-ylsulfonyl)-1′,2′,3′,6′-tetrahydro-[2,4′]bipyridinyl-6-carboxylic acid cyclopropylamide] it is 6180 nM.
On to `O=C(NC1CC1)c1cccc(C2=CCN(S(=O)(=O)c3ccsc3)CC2)n1` [1′-(Thiophen-3-ylsulfonyl)-1′,2′,3′,6′-tetrahydro-[2,4′]bipyridinyl-6-carboxylic acid cyclopropylamide], for which the IC50 was 1050 nM.
The value for `O=C(NC1CC1)c1cccc(C2=CCN(S(=O)(=O)C3CCCCC3)CC2)n1` [1′-Cyclohexylsulfonyl-1′,2′,3′,6′-tetrahydro-[2,4′]bipyridinyl-6-carboxylic acid cyclopropylamide] was 320 nM.
As to `O=C(NC1CC1)c1cccc(C2=CCN(S(=O)(=O)C3CCCC3)CC2)n1` [1′-Cyclopentylsulfonyl-1′,2′,3′,6′-tetrahydro-[2,4′]bipyridinyl-6-carboxylic acid cyclopropylamide], the half-inhibitory concentration (IC50) worked out at 2700 nM.
The value for `CN(C)S(=O)(=O)N1CC=C(c2cccc(C(=O)NC3CC3)n2)CC1` [1′-Dimethylsulfamoyl-1′,2′,3′,6′-tetrahydro-[2,4′]bipyridinyl-6-carboxylic acid cyclopropylamide] was > 20000 nM.
The figure for `NC(=O)c1ccnc(C2=CCN(S(=O)(=O)c3cccc(C(F)(F)F)c3)CC2)n1` [2-[1-(3-Trifluoromethylbenzenesulfonyl)-1,2,3,6-tetrahydropyridin-4-yl]-pyrimidine-4-carboxylic acid amide] is 360 nM; for `O=C(NCC1CC1)c1ccnc(C2=CCN(S(=O)(=O)c3cccc(C(F)(F)F)c3)CC2)n1` [2-[1-(3-Trifluoromethylbenzenesulfonyl)-1,2,3,6-tetrahydropyridin-4-yl]pyrimidine-4-carboxylic acid cyclopropylmethylamide] it is 130 nM.
For the compound `O=C(NC1CC1)c1ccnc(C2=CCN(S(=O)(=O)c3ccc(OC(F)(F)F)cc3)CC2)n1` [2-[1-(4-Trifluoromethoxybenzenesulfonyl)-1,2,3,6-tetrahydropyridin-4-yl]pyrimidine-4-carboxylic acid cyclopropylamide], the IC50 turned out to be 240 nM.
The value for `O=C(NC1CC1)c1nc(C2=CCN(S(=O)(=O)c3ccc(OC(F)(F)F)cc3)CC2)ccc1Cl` [5-Chloro-1′-(4-trifluoromethoxybenzenesulfonyl)-1′,2′,3′,6′-tetrahydro-[2,4′]bipyridinyl-6-carboxylic acid cyclopropylamide] was 490 nM; that for `O=C(NC1CC1)c1cccc(C2=CCN(S(=O)(=O)c3cccc(C(F)(F)F)c3)CC2)n1` [Compound 7, 1′-(3-Trifluoromethylbenzenesulfonyl)-1′,2′,3′,6′-tetrahydro-[2,4′]bipyridinyl-6-carboxylic acid cyclopropylamide] was 30 nM.
Consider `NC(=O)c1ccnc(C2=CCN(S(=O)(=O)c3ccc(OC(F)(F)F)cc3)CC2)n1` [Compound 15, 2-[1-(4-Trifluoromethoxybenzenesulfonyl)-1,2,3,6-tetrahydropyridin-4-yl]-pyrimidine-4-carboxylic acid amide], for which the IC50 is > 20000 nM.
Regarding `COC(=O)c1cccc(C2=CCN(S(=O)(=O)c3cccc(C(F)(F)F)c3)CC2)n1` [Compound 25, 1′-(3-Trifluoromethylbenzenesulfonyl)-1′,2′,3′,6′-tetrahydro-[2,4′]bipyridinyl-6-carboxylic acid methyl ester], the IC50 was 920 nM.
Turning to `O=C(O)c1cccc(C2=CCN(S(=O)(=O)c3cccc(C(F)(F)F)c3)CC2)n1` [Compound 26, 1′-(3-Trifluoromethylbenzenesulfonyl)-1′,2′,3′,6′-tetrahydro-[2,4′]bipyridinyl-6-carboxylic acid], the half-maximal inhibitory concentration (IC50) was > 20000 nM.
The figure for `O=C(NCC1CC1)c1cccc(C2=CCN(S(=O)(=O)c3cccc(C(F)(F)F)c3)CC2)n1` [Compound 27, 1′-(3-Trifluoromethylbenzenesulfonyl)-1′,2′,3′,6′-tetrahydro-[2,4′]bipyridinyl-6-carboxylic acid cyclopropylmethylamide] is 10 nM; for `NC(=O)c1cccc(C2=CCN(S(=O)(=O)c3cccc(C(F)(F)F)c3)CC2)n1` [Compound 28, 1′-(3-Trifluoromethylbenzenesulfonyl)-1′,2′,3′,6′-tetrahydro-[2,4′]bipyridinyl-6-carboxylic acid amide] it is 590 nM.
For `N#Cc1cccc(C2=CCN(S(=O)(=O)c3cccc(C(F)(F)F)c3)CC2)n1` [Compound 32, 1′-(3-Trifluoromethylbenzenesulfonyl)-1′,2′,3′,6′-tetrahydro-[2,4′]bipyridinyl-6-carbonitrile], the IC50 came to 1600 nM.
For the compound `N=C(NCC1CC1)c1cccc(C2=CCN(S(=O)(=O)c3ccc(OC(F)(F)F)cc3)CC2)n1` [Compound 34, N-Cyclopropylmethyl-1′-(4-trifluoromethoxybenzenesulfonyl)-1′,2′,3′,6′-tetrahydro-[2,4′]bipyridinyl-6-carboxamidine], the IC50 turned out to be 320 nM.
The value for `O=C(NC1CC1)c1ccnc(C2=CCN(S(=O)(=O)c3cccc(C(F)(F)F)c3)CC2)n1` [Compound 39, 2-[1-(3-Trifluoromethylbenzenesulfonyl)-1,2,3,6-tetrahydropyridin-4-yl]pyrimidine-4-carboxylic acid cyclopropylamide] was 60 nM; that for `O=C(NC1CC1)c1nc(C2=CCN(S(=O)(=O)c3cccc(C(F)(F)F)c3)CC2)ccc1Cl` [Compound 44, 5-Chloro-1′-(3-trifluoromethylbenzenesulfonyl)-1′,2′,3′,6′-tetrahydro-[2,4′]bipyridinyl-6-carboxylic acid cyclopropylamide] was 60 nM.
The value for `O=C(NC1CC1)c1cccc(C2=CC3CCC(C2)N3S(=O)(=O)c2cccc(C(F)(F)F)c2)n1` (stereo not drawn) [Compound 55, 6-[8-(3-Trifluoromethylbenzenesulfonyl)-8-aza-bicyclo[3.2.1]oct-2-en-3-yl]pyridine-2-carboxylic acid cyclopropylamide] was 50 nM; that for `O=C(NC1CC1)c1coc(C2=CCN(S(=O)(=O)c3ccc(OC(F)(F)F)cc3)CC2)n1` [Compound 61, 2-[1-(4-Trifluoromethoxybenzenesulfonyl)-1,2,3,6-tetrahydropyridin-4-yl]oxazole-4-carboxylic acid cyclopropylamide] was 320 nM.
